Data reported in patent publication US4710500A, “1-(4'-fluorophenyl)-3,5-substituted indoles useful in the treatment of psychic disorders and pharmaceutical compositions thereof” (H. Lundbeck A/S, priority 1985, dated 1987).
Structures can show the parent of a compound that is named as a salt. Where two headings read alike, the source gives them in different places.

Tests used:
[1] = test system: methylphenidate-induced gnawing; assay: Methylphenidate antagonism; type: in vivo, mice; conditions: for ED50: Mus musculus; for MePh Antg. ED50 (sc): *ED50 from sc administration
in vivo = conditions: mouse, iv
Catalepsy = type: in vivo, rat; conditions: for Catalep. ED50 (sc) 1-6 h / Catalep. ED50 (sc) 24 h: *ED50 from sc administration
[2] = molecular target: T1, dopamine (DA) D-2 receptors (Rattus norvegicus, UniProt P61169); assay: 3H-spiroperidol binding, dopamine D-2 receptors in rat striatal membranes
T1 construct: DA D-2 receptors in rat striatal membranes; from tissue; host or cells: rat striatal membranes
Description: (§1) 4. ^3 H-spiroperidol bindings
The affinity of compounds to dopamine (DA) D-2 receptors and serotomin2 (5-HT2) receptors was determined by in vitro receptor binding technique.
Arnt, J., J. Hyttel and J.-J. Larsen: Acta pharmacol. et toxicol.

5-HT2 receptor = molecular target: T2, 5-HT2 receptor (Rattus norvegicus, UniProt P14842); assay: Quipazine inhibition (head twitches); type: in vivo; conditions: sc 2 hours before quipazine 15 umol/kg sc
T2 construct: from tissue; host or cells: living rats (in vivo), CNS
Description: Quipazine and a number of other compounds, which increase 5-HT2 receptor activity in the CNS, induce a characteristic rapid shake (twitch) of the head. This response is inhibited by 5-HT2 receptor antagonists (Vetulani et al. 1980, Arnt et al. 1984).
The test compound or saline is injected subcutaneously 2 hours before subcutaneous injection of quipazine hemimalecate (15umol/kg). At least 3 dose groups, each consisting of at least 4 rats, are used. The rats are individually placed in observation cages (12×25 cm) and the number of head twitches are counted 30-40 min after quipazine administration. Inhibition of head twitches is expressed in per cent of the number of head twitches in the control group. ED 50 values are calculated by log-probit analysis.
Vetulani, J., B.B. Beduarczyk, K. Reichenberg and A. Rokost: Neuropharmacology 19, 155-158, […].
(§2) Arnt, J., J. Hyttel and J.-J. Larsen: Acta pharmacol. et toxicol. 55, 363-372, 1984.

[3] = molecular target: T3, serotomin2 (5-HT2) receptors (Rattus norvegicus, UniProt P14842); assay: 3H-spiroperidol binding, 5-HT2 receptors in rat cortical membranes; conditions: in vitro, read-out: 3H-Spiroperidol bindings 5-HT2 receptors IC50
T3 construct: 5-HT2 receptors in rat cortical membranes; from tissue; host or cells: rat cortical membranes
Description: as §1
The affinity of compounds to dopamine (DA) D-2 receptors and serotomin2 (5-HT2) receptors was determined by in vitro receptor binding technique. Binding of ^3 H-spiroperidol to DA D-2 receptors in rat striatal membranes and to 5-HT2 receptors in rat cortical membranes was determined as described in detail by Arnt et al. (1984).
as §2

[4] = ip, read-out: MePh Antg. ED50(ip)
[5] = Rattus norvegicus, po, read-out: Catalep. ED50(po) 1-6 h
[6] = i.p. test substance, mice, methylphenidate s.c. 60 mg/kg
[7] = rat striatal membranes, in vitro, read-out: 3H-Spiroperidol bindings DA-2 receptors IC50
[8] = Rattus norvegicus, po, 24 h, read-out: Catalep. ED50(po) 24 h
[9] = ip, i.p. test substance, mice, methylphenidate s.c. 60 mg/kg, read-out: MePh Antg. ED50(ip)
[10] = read-out: Catalep. ED50(po) 1-6 h, po, rat, 1-6 h
[11] = read-out: Catalep. ED50(po) 24 h, po, rat, 24 h
[12] = Rattus norvegicus, sc, 24 h, read-out: Catalep. ED50 (sc) 24 h
[13] = Rattus norvegicus, sc, read-out: Catalep. ED50 (sc) 1-6 h
[14] = mice, methylphenidate s.c. 60 mg/kg

T2 sequence (P14842 whole entry): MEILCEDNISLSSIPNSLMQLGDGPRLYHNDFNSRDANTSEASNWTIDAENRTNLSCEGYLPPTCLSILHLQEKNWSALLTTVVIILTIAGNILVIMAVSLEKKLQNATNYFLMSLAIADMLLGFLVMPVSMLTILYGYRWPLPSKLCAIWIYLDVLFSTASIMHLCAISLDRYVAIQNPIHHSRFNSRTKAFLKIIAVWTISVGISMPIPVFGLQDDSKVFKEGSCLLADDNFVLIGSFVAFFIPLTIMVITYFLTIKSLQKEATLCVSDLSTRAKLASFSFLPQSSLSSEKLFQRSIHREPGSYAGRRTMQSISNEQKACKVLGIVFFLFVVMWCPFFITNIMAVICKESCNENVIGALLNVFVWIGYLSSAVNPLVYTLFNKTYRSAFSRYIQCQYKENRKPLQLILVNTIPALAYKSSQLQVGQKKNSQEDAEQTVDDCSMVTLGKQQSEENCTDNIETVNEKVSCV
T3 sequence (P14842 whole entry): as above
T1 sequence (P61169 whole entry): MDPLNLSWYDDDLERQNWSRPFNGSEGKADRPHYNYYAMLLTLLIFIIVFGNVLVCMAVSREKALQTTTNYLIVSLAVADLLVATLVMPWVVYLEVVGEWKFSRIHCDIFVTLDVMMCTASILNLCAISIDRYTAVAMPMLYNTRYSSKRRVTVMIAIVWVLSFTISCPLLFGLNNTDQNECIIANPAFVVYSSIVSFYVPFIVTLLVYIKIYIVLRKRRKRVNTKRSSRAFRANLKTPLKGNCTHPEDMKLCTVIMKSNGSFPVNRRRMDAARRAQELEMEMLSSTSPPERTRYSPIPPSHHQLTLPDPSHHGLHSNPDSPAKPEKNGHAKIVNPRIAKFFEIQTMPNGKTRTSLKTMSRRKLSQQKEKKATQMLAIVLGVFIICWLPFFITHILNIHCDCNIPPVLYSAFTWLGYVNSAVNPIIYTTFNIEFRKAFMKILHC

Row | SMILES | IC50 [2] [nM] | Qvipaz. inh. ED50(sc) (5-HT2 receptor) [µmol/kg] | IC50 [3] [nM] | MePh Antg. ED50 (sc) [1, 14] [µmol/kg] | further results
1 | CN(C)CCCN1c2ccccc2Sc2ccc(Cl)cc21 [Clorpromazine, reference compound] |  |  |  |  | ED50 [1, 4]: 23 µmol/kg; LD50 (in vivo): 120 to 180 µmol/kg; ED50 (Catalepsy; [5]): 70 µmol/kg
2 | Cc1ccc2c(c1)c(C1=CCN(C)CC1)cn2-c1ccc(F)cc1.Cl [Lu 20-089, 1-(4'-Fluorophenyl)-5-methyl-3-(1-methyl-1,2,3,6-tetrahydropyridin-4-yl)-1H-indole, hydrochloride] | 0.34 | 0.12 | 1.8 |  | MePh Antg. ED50(ip) [1, 6]: 0.18 µmol/kg; Catalep. ED50(po) 1-6 h (Catalepsy; po, rat, 1-6 h): 0.43 µmol/kg; Catalep. ED50(po) 24 h (Catalepsy; po, rat, 24 h): 6.5 µmol/kg
3 | CN1CC=C(c2cn(-c3ccc(F)cc3)c3ccc(F)cc23)CC1.Cl [Lu 21-018, 5-Fluoro-1-(4'-fluorophenyl)-3-(1-methyl-1,2,3,6-tetrahydropyridin-4-yl)-1H-indole, hydrochloride] |  | 0.15 | 3 |  | ED50 [1, 4]: 0.58 µmol/kg; IC50 [2, 7]: 0.74 nM; ED50 (Catalepsy; [8]): > 6.9 µmol/kg; ED50 (Catalepsy; [5]): 2 µmol/kg
4 | CN1CC=C(c2cn(-c3ccc(F)cc3)c3ccc(C(F)(F)F)cc23)CC1.O=C(O)C(=O)O [Lu 21-120, 1-(4'-Fluorophenyl)-3-(1-methyl-1,2,3,6-tetrahydropyridin-4-yl)-5-trifluoromethyl-1H-indole, oxalate] | 0.61 | 0.03 | 3.1 |  | ED50 [1, 4]: 0.08 µmol/kg; ED50 (Catalepsy; [8]): 0.35 µmol/kg; ED50 (Catalepsy; [5]): 0.32 µmol/kg
5 | CN1CCN(c2cn(-c3ccc(F)cc3)c3ccc(C(F)(F)F)cc23)CC1 [Lu 21-123, 1-(4'-Fluorophenyl)-3-(4-methylpiperazio)-5-trifluoromethyl-1H-indole, dihydrochloride] |  |  | 6.7 |  | ED50 [1, 9]: 0.09 µmol/kg; IC50 [2, 7]: 1.7 nM; ED50 (Catalepsy; [10]): 0.08 µmol/kg; ED50 (Catalepsy; [11]): 0.62 µmol/kg
6 | Fc1ccc(-n2cc(N3CCNCC3)c3cc(C(F)(F)F)ccc32)cc1 [Lu 21-153, 1-(4'-Fluorophenyl)-3-piperazino-5-trifluoromethyl-1H-indole] |  | 0.37 | 6.7 |  | ED50 [1, 9]: 2 µmol/kg; IC50 [2, 7]: 3.7 nM; ED50 (Catalepsy; [10]): 7.1 µmol/kg; ED50 (Catalepsy; [11]): 16 µmol/kg
7 | Br.CN1CC=C(c2cn(-c3ccc(F)cc3)c3ccc(Cl)cc23)CC1 [Lu 22-117, 5-Chloro-1-(4'-fluorophenyl)-3-(1-methyl-1,2,3,6-tetrahydropyridin-4-yl)-1H-indole, hydrobromide] | 1.2 | 0.052 | 0.66 |  | ED50 [1, 4]: 0.06 µmol/kg; ED50 (Catalepsy; [12]): > 0.37 µmol/kg; ED50 (Catalepsy; [13]): 0.09 µmol/kg
8 | O=C1CCCN1CCN1CCN(c2cn(-c3ccc(F)cc3)c3ccc(C(F)(F)F)cc23)CC1 [Lu 22-133, 1-(4'-Fluorophenyl)-3-(4-(1-pyrrolidin-2-onylethyl)-1-piperazino)-5-trifluoromethyl-1H-indole] |  | 0.15 | 1.9 |  | ED50 [1, 9]: 0.82 µmol/kg; ED50 (Catalepsy; [12]): 1.7 µmol/kg; ED50 (Catalepsy; [13]): 0.66 µmol/kg
9 | O=C1NCCN1CCN1CCN(c2cn(-c3ccc(F)cc3)c3ccc(C(F)(F)F)cc23)CC1 [Lu 23-001, 1-(4'-Flurophenyl)-3-(4-(2-imidazolidinon-1-ylethyl)-1-piperazino)-5-trifluoromethyl-1H-indole, dihydrobromide] |  | 0.047 | 18 |  | MePh Antg. ED50(ip) [1, 6]: 0.22 µmol/kg; IC50 [2, 7]: 6.6 nM; Catalep. ED50(po) 1-6 h (Catalepsy; po, rat, 1-6 h): 1.2 µmol/kg; Catalep. ED50(po) 24 h (Catalepsy; po, rat, 24 h): 2.6 µmol/kg
10 | O=C1CCCN1CCN1CC=C(c2cn(-c3ccc(F)cc3)c3ccc([N+](=O)[O-])cc23)CC1 [Lu 23-024, 1-(4'-Fluorophenyl)-5-nitro-3-(1-pyrrolidin-2-onylethyl)-1,2,3,6-tetrahydropyridin-4-yl)-1H-indole, hydrochloride] |  |  | 5.3 |  | MePh Antg. ED50(ip) [1, 6]: 0.65 µmol/kg; Catalep. ED50 (sc) 1-6 h (Catalepsy; rat, 1-6 h): 6.8 µmol/kg; Catalep. ED50 (sc) 24 h (Catalepsy; rat, 24 h): > 10 µmol/kg
11 | O=C1NCCN1CCN1CCC(c2cn(-c3ccc(F)cc3)c3ccccc23)CC1 [Lu 23-086, 1-(4'-Fluorophenyl)-3-(1-(2--imidazolidinon-1-ylethyl)-4-piperidyl)-1H-indole] |  | 0.036 | 2.9 | > 98 | IC50 [2, 7]: 42 nM
12 | O=C1OCCN1CCN1CC=C(c2cn(-c3ccc(F)cc3)c3ccc([N+](=O)[O-])cc23)CC1 [Lu 23-134, 1-(4'-Fluorophenyl)-5-nitro-3-(1-(2-oxazolidinon-3-ylethyl)-1,2,36-tetrahydropyridin-4-yl)-1H-indole, maleate] | 2.8 |  | 15 | 9.0 | Catalep. ED50(po) 1-6 h (Catalepsy; po, rat, 1-6 h): 1.1 µmol/kg; Catalep. ED50(po) 24 h (Catalepsy; po, rat, 24 h): > 8.8 µmol/kg
13 | O=C1NCCN1CCN1CC=C(c2cn(-c3ccc(F)cc3)c3ccc([N+](=O)[O-])cc23)CC1 [Lu 23-142, 1-(4'-Fluorophenyl)-3-(1-(2-imidazolidinon-1-ylethyl)-1,2,3,6-tetrahydropridin-4-yl)-5-nitro-1H-indole] |  |  | 6.7 | 2.6 | 
14 | O=[N+]([O-])c1ccc2c(c1)c(C1=CCN(CCO)CC1)cn2-c1ccc(F)cc1 [Lu 23-150, 1-(4'-fluoropheynl)-3-(1-(2-hydroxyethyl)-1,2,3,6-tetrahydropyridin-4-yl)-5-nitro-1H-indole] | 4.7 |  | 10 | 0.07 | Catalep. ED50(po) 1-6 h (Catalepsy; po, rat, 1-6 h): 0.21 µmol/kg
15 | OCCN1CC=C(c2cn(-c3ccc(F)cc3)c3ccc(C(F)(F)F)cc23)CC1 [Lu 23-156, 1-(4'-Fluorophenyl)-3-(1-(2-hydroxyethyl)-1,2,3,6-tetrahydropyridin-4-yl) -5-trifluoromethyl-1H-indole] | 19 | 0.03 | 15 |  | ED50 ([1]; sc, read-out: MePh Antg. ED50 (sc)): 0.07 µmol/kg; ED50 (Catalepsy; [12]): 1.1 µmol/kg; ED50 (Catalepsy; [13]): < 0.19 µmol/kg
16 | OCCN1CC=C(c2cn(-c3ccc(F)cc3)c3ccc(F)cc23)CC1 [Lu 23-160, 5-fluoro-1-(4'-flurophenyl)-3-(1-(2-hydroxyethyl)-1,2,3,6-tetrahydropyridin-4-yl)-1H-indole, oxalate] | 11 |  | 34 | 3.4 | Catalep. ED50 (sc) 24 h (Catalepsy; rat, 24 h): 5.2 µmol/kg
17 | Cc1nccn1CCN1CC=C(c2cn(-c3ccc(F)cc3)c3ccc(C(F)(F)F)cc23)CC1 [Lu 23-173, 1-(4'-Fluorophenyl)-3-(1-(2-methyl-1-imidazole-2-ethyl)-1,2,3,6-tetrahydropyridin-4-yl)-5-trifluoromethyl-1H-indole, difumarate] | 42 | > 7.1 | 60 | 0.77 | Catalep. ED50 (sc) 1-6 h (Catalepsy; rat, 1-6 h): 1.8 µmol/kg
18 | OCCCN1CC=C(c2cn(-c3ccc(F)cc3)c3ccc(F)cc23)CC1 [Lu 23-175, 5-Fluor-1-(4'-fluorophenyl)-3-(1-(3-hydroxypropyl)-1,2,3,6-tetrahydropyridin-4-yl)-1H-indole, oxalate] | 11 |  | 6.7 | 0.32 | Catalep. ED50 (sc) 1-6 h (Catalepsy; rat, 1-6 h): 0.68 µmol/kg
19 | CN1CC=C(c2cn(-c3ccsc3)c3ccc(Cl)cc23)CC1.O=C(O)/C=C\C(=O)O [Lu 24-001, 5-Chloro-3-(1-methyl-1,2,3,6-tetrahydropyridin-4-yl)-1-(3-thienyl)-1H-indole, maleate] |  | 0.19 | 8.8 |  | MePh Antg. ED50(ip) [1, 6]: 2.6 µmol/kg
20 | CN1CC=C(c2cn(-c3ccccc3F)c3ccc([N+](=O)[O-])cc23)CC1 [Lu 24-003, 1-(2'-Fluorophenyl)-5-nitro-3-(1-methyl-1,2,3,6-tetrahydropyridin-4-yl)-1H-indole, maleat] | 6 |  | 14 | 0.09 | 
